Experimental data published in patent publication US20090298817A1, “ANTI-AMNESIC COMPOUNDS AND PHARMACEUTICAL CO[…]” (priority 2008, published 2009).

Test system: amnesia induced by scopolamine in rats
Assay: passive avoidance test, amnesia induced by scopolamine in rats
Assay type: in vivo
Method: The purpose of the study is to examine the effects of etifoxine on amnesia, induced by a substance which is an antagonist of the cholinergic receptors in rats, scopolamine (see in particular Rush (1988) Behav. Neural. Biol. 1988 50:255-274).
Memory capacities are evaluated over the course of the passive avoidance test in a box with two compartments, dark and light. In a first step, the acquisition step, entering the dark compartment is associated with an unpleasant electric shock. In a second step, the retention step, the latency to enter the dark compartment is measured. The lower this latency, the more strongly the animal is suffering from amnesia.
Amnesia is induced by administering scopolamine 30 minutes before the information acquisition step.
Two series of tests were performed: • 1) Etifoxine was administered intraperitoneally 35 minutes before acquisition of the event. • 7 groups of 10 to 20 rats were formed, each group receiving the following respective treatments: • Group 1 (reference): scopolamine 0 mg/kg, etifoxine 0 mg/kg • Group 2 (control): scopolamine 0 mg/kg, etifoxine 50 mg/kg • Group 3: scopolamine 1.4 mg/kg, etifoxine 0 mg/kg • Group 4: scopolamine 1.4 mg/kg, etifoxine 6.2 mg/kg • Group 5: scopolamine 1.4 mg/kg, etifoxine 12.5 mg/kg • Group 6: scopolamine 1.4 mg/kg, etifoxine 25 mg/kg • Group 7: scopolamine 1.4 mg/kg, etifoxine 50 mg/kg • 2) Etifoxine was administered intraperitoneally immediately after acquisition of the event. • 7 groups of 10 rats were formed, each group receiving the following respective treatments: • Group 1 (reference): scopolamine 0 mg/kg, etifoxine 0 mg/kg • Group 2 (control): scopolamine 0 mg/kg, etifoxine 50 mg/kg • Group 3: scopolamine 1.4 mg/kg, etifoxine 0 mg/kg • Group 4: scopolamine 1.4 mg/kg, etifoxine 6.2 mg/kg • Group 5: scopolamine 1.4 mg/kg, etifoxine 12.5 mg/kg • Group 6: scopolamine 1.4 mg/kg, etifoxine 25 mg/kg • Group 7: scopolamine 1.4 mg/kg, etifoxine 50 mg/kg
For each test series and for each group the latency to enter the dark compartment was measured in the case of acquisition and in the case of retention.
For the first series of tests, a one-way ANOVA analysis was performed followed by the Student-Newman-Keuls test in order to find the differences between the groups. The difference is considered significant if the critical value P obtained was less than 0.05.
For the second series of tests, the non-parametric Kruskal-Wallis test was performed followed by the Dunn test in order to find the differences between the groups. The difference is considered significant if the critical value P obtained was less than 0.05.

SMILES | anti-amnesic action (animals, model where memory disorder is induced by scopolamine (summary statement)) | effect on the amnesic effects of scopolamine (latency to enter the dark compartment, retention) (rats, etifoxine 6.2-50 mg/kg intraperitoneally 35 minutes before acquisition, scopolamine 1.4 mg/kg 30 minutes before acquisition, FIG. 1) | effect on the amnesic effects of scopolamine (latency to enter the dark compartment, retention) (rats, etifoxine 6.2-50 mg/kg intraperitoneally immediately after acquisition, scopolamine 1.4 mg/kg 30 minutes before acquisition, FIG. 2) | time period to enter the dark compartment vs. reference groups (rats, scopolamine 1.4 mg/kg 30 minutes before acquisition, etifoxine 0, FIGS. 1, 2)
CCNC1=Nc2ccc(Cl)cc2C(C)(c2ccccc2)O1.Cl (stereo not shown) [etifoxine, 6-chloro-2-ethylamino-4-methyl-4-phenyl-4H-[3,1]benzoxazine hydrochloride] | exhibits anti-amnesic action | counteracts the amnesic effects of scopolamine according to an inverted U-shaped curve | counteracts the amnesic effects of scopolamine according to an inverted U-shaped curve | 
CN1[C@@H]2C[C@@H](OC(=O)[C@H](CO)c3ccccc3)C[C@H]1[C@@H]1O[C@@H]12 [Scopolamine] |  |  |  | significantly shorter
